Reference: article PMC4629031, “Evaluation of the Inhibitory Effects of Bavachinin and Bavachin on Human Monoamine Oxidases A and B” (Evidence-based Complementary and Alternative Medicine : eCAM, 2015)

Columns and labels:
[1] = target: T1, human monoamine oxidase A (hMAO-A) (Homo sapiens, UniProt P21397); assay: MAO-Glo luminescent assay with recombinant enzyme; Michaelis-Menten/Lineweaver-Burk kinetics (IC50 […]); assay type: biochemical
T1 construct: gene MAOA
T1 sequence (P21397 1-527): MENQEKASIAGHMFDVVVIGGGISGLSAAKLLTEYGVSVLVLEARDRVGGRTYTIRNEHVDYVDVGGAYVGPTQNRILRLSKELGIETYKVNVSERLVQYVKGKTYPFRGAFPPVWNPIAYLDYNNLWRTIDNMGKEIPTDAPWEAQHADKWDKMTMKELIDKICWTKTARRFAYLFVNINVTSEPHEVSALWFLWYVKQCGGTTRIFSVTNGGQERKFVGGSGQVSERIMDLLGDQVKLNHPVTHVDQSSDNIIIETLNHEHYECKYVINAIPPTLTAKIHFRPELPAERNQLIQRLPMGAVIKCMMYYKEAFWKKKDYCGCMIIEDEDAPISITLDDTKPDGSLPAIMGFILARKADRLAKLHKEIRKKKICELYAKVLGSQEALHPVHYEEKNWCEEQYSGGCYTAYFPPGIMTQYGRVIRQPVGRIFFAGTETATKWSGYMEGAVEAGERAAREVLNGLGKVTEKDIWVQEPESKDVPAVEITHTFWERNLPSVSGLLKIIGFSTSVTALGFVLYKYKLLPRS

[2] = target: T2, human monoamine oxidase B (hMAO-B) (Homo sapiens, UniProt P27338); assay: as above; assay type: biochemical
T2 construct: gene MAOB
T2 sequence (P27338 2-520): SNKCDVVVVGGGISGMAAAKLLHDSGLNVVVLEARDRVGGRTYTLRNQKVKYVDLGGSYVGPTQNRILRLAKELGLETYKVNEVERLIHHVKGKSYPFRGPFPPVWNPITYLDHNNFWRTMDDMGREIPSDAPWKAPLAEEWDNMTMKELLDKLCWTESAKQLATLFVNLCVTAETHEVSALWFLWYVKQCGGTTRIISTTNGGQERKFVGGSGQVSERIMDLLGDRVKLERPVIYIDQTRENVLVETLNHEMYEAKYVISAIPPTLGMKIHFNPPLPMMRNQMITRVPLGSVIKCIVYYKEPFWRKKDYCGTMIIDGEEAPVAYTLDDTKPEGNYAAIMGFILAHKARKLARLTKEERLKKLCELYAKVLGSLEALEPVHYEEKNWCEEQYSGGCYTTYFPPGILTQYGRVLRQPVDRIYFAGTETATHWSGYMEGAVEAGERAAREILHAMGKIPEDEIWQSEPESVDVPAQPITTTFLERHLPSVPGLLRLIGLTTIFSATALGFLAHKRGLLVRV

Ki [1]: 95.3 µM | Ki [2]: 9.22 µM
Compound: COc1cc2c(cc1CC=C(C)C)C(=O)C[C@@H](c1ccc(O)cc1)O2 [BNN, 4′-hydroxy-7-methoxy-6-(3-methyl-2-butenyl) flavanone]
